Data from patent US20230014181A1, “CULTURE SYSTEM AND METHODS FOR IMPROVED MODELING OF NEUROLOGICAL CONDITIONS” (Genentech, Inc., priority 2021, published 2023).
Where a SMILES comes first, the peptide text is derived from it. [ ]: non-standard residue; d: D form. Nle = CCCC[C@H](N)C(=O)O

How the values were obtained:
[1] = system: human iPSC neurons and astrocytes treated with 5 μM sAβ42s; assay: Focused small molecule screen, double culture (neuron, astrocyte), rescue from sAβ42s toxicity, high content imaging; type: cell-based; settings: for % B3T rescue / % Cux2 rescue / % MAP2 rescue / % Synapse rescue: double culture, 5 μM sAβ42s
Method: (§1) FIGS. 11A-11D show synapse % rescue versus MAP2% rescue (FIGS. 11A-11B) and beta III tubulin % rescue versus MAP2% rescue (FIGS. 11C-11D), in neurons and astrocytes (FIGS. 11A and 11C) or neurons, astrocytes, and microglia (FIGS. 11B and 11D) treated with 5 μM sAβ42s and small molecules from a focused screen of known neuroprotective agents at multiple concentrations (50 μM, 25 μM, 12.5 μM and 6.25 μM (double culture), 50 μM, 12.5 μM, 3.1 μM and 0.78 μM (triple culture). Small molecules that prevented toxicity in dendrites (MAP2), synapses (Synapsin 1/2), cell count (CUX2), or axons ([…]) at or above 30% were considered hits (red dotted line).
Neurons from both NSC lines were evaluated by immunofluorescence staining. Briefly, cells were fixed with 4% PFA and 4% sucrose at room temperature for 20 minutes using Bravo automation. Fixed cells were then washed 2 times with PBS using Biotek 406 microplate washer (Beckman Coulter), followed by permeabilization and blocking by incubation with a solution containing 1×PBS, 0.1% Triton X-100, 2% donkey serum, and 1% BSA at room temperature for 30 minutes. Blocking solution was removed and cells were incubated with primary antibodies in blocking solution overnight at 4° C. After washing 6 times with PBS on Biotek 406 cell plate washer (Beckman Coulter), cells were then incubated with fluorophore-conjugated secondary antibodies for 1 hour at room temperature in the dark to avoid photobleaching. Cells were then washed 6 more times in with PBS before imaging. Fluorescent images were captured using IN Cell 6000 confocal microscope (GE Healthcare Life Sciences). The image analysis was performed with IN Cell 6000 analysis software.
Prior to experimentation, media volume in wells containing neurons was equalized with liquid handling automation (Bravo) in order to ensure precise control of concentrations. All Aβ42 oligomers, anti-Aβ, small molecules, inflammatory cytokines were prepared at 10× concentration and added to Neuronal Culture Media at an appropriate volume. For the repeated dosing experiments, the media were refreshed 50% at each dosing first, before adding Aβ42 oligomers, and/or anti-Aβ antibody at the specified final concentration.
(§2) In double (neuron, astrocyte) and triple (neuron, astrocyte, microglia) cultures, each small molecule listed in Table 1 was tested in the AD model paradigm at up to four concentrations. Molecules that characterized ≥30% rescue in any of the four measurements of dendrites area (MAP2), synapses count (synapsin 1/2), or cell count (CUX2), or axon area (Beta III Tubulin; “BT3”)) were classified as hits (FIGS. 11A-11D, Table 2, and Table 3).

[2] = system: human iPSC neurons, astrocytes and microglia treated with 5 μM sAβ42s; assay: Focused small molecule screen, triple culture (neuron, astrocyte, microglia), rescue from sAβ42s toxicity; type: cell-based
Method: as §1
Frozen cells were thawed and immediately seeded at a density of 8,000 cells/well of a 384-well plate onto 8-week old neuron-astrocyte co-culture in Microglia media (BrainPhys™ neuronal media (Stem Cell Technologies) supplemented with 1× B27 with vitamin A, 1×N2 Plus Media Supplement (R&D Systems), 20 ng/mL BDNF, 20 ng/mL GDNF, 1 mM creatine, 200 nM L-ascorbic acid, 1 μg/mL mouse laminin, 0.5 mM GlutaMAX™ (Thermofisher), 0.5× penicillin-streptomycin, 1× normocin, 5 ng/mL TGF-β, 100 ng/mL human IL-34, 1.5 μg/mL cholesterol, 1 ng/mL gondoic acid, 100 ng/mL oleic acid, 460 μM thioglycerol, 1× insulin-transferrin-selenium, 25 ng/mL rhM-CSF, 5.4 μg/mL human insulin solution).
as §2

Structure (SMILES) | % B3T rescue ([1]; 50 μM compound) | % Cux2 rescue ([1]; 50 μM compound) | % MAP2 rescue ([1]; 50 μM compound) | % Synapse rescue ([1]; 50 μM compound) | % B3T rescue ([2]; 3.13 μM compound) | % MAP2 rescue ([2]; 3.13 μM compound) | % Synapse rescue ([2]; 3.13 μM compound) | % B3T rescue ([2]; 12.50 μM compound) | % MAP2 rescue ([2]; 12.50 μM compound) | % Synapse rescue ([2]; 12.50 μM compound) | % B3T rescue ([2]; 50.00 μM compound) | % MAP2 rescue ([2]; 50.00 μM compound) | % Synapse rescue ([2]; 50.00 μM compound) | % B3T rescue ([1]; 6.25 μM compound) | % Cux2 rescue ([1]; 6.25 μM compound) | % MAP2 rescue ([1]; 6.25 μM compound) | % Synapse rescue ([1]; 6.25 μM compound) | % B3T rescue ([1]; 12.5 μM compound) | % Cux2 rescue ([1]; 12.5 μM compound) | % MAP2 rescue ([1]; 12.5 μM compound) | further results
O=C(Nc1cccc(Br)c1)c1cccc(S(=O)(=O)N2CCCCCC2)c1 [AK 7] | 42% | 0% | −17% | −5% | 77% | 18% | 13% | 81% | 53% | 42% | 56% | 28% | 17% | – | – | – | – | – | – | – | % B3T rescue ([2]; 0.78 μM compound): 79%; % MAP2 rescue ([2]; 0.78 μM compound): 1%; % Synapse rescue ([2]; 0.78 μM compound): 3%
N#CC(c1ccnc(NCCc2cccnc2)n1)c1nc2ccccc2s1 (stereo not shown) [AS601245] | −16% | 123% | 64% | 19% | 18% | 54% | 17% | 26% | 74% | 26% | 44% | 95% | 45% | 14% | 9% | 49% | 37% | 20% | 13% | 67% | % Synapse rescue ([1]; 12.5 μM compound): 57%; % B3T rescue ([1]; 25 μM compound): 11%; % Cux2 rescue ([1]; 25 μM compound): 32%; % MAP2 rescue ([1]; 25 μM compound): 73%; % Synapse rescue ([1]; 25 μM compound): 36%; protection in focused screens ([1]; double and triple cultures): protective to a lesser extent
CCCC[C@@H](C=O)NC(=O)[C@H](CC(C)C)NC(=O)[C@H](CC(C)C)NC(C)=O [Ac-Leu-Leu-Nle-CHO] (Ac-Leu-Leu-[Nle]-aldehyde) | 0% | 78% | 23% | 2% | 57% | 55% | 38% | 44% | 48% | 18% | – | – | – | 14% | 85% | 31% | 0% | 0% | 87% | 18% | % Synapse rescue ([1]; 12.5 μM compound): −4%; % B3T rescue ([1]; 25 μM compound): −11%; % Cux2 rescue ([1]; 25 μM compound): 87%; % MAP2 rescue ([1]; 25 μM compound): 20%; % Synapse rescue ([1]; 25 μM compound): −5%; % B3T rescue ([2]; 0.78 μM compound): 38%; % MAP2 rescue ([2]; 0.78 μM compound): 21%; % Synapse rescue ([2]; 0.78 μM compound): 14%
Cc1ccc(S(=O)(=O)/C=C/C#N)cc1 [BAY 11-7082] | – | – | – | – | – | – | – | – | – | – | 44% | 21% | −1% | 38% | 70% | 34% | −2% | 31% | 85% | 36% | % Synapse rescue ([1]; 12.5 μM compound): −3%; % B3T rescue ([1]; 25 μM compound): 14%; % Cux2 rescue ([1]; 25 μM compound): 82%; % MAP2 rescue ([1]; 25 μM compound): 17%; % Synapse rescue ([1]; 25 μM compound): −13%
